Assay [1] relates to spontaneous motor activity. The experiment in a line: spontaneous motor activity in mice (circular actophotometers, activity counts). The assay is classed as in vivo, mouse. The note with it: for hyperactive response: same conditions, 0.32-32 mg./kg. i.p. Here is the method: (§1) On the other hand, the activity of the compounds of the present invention, as psychomotor stimulants, is based on a variety of tests, including (1) a study of their motor activity in mice and (2) a measurement of their ability to influence the loss of avoidance behavior in rats trained on a non-discriminated (Sidman) avoidance schedule.
A total of seven mice was employed at each dose level tested (viz., at 0.32, 1.0, 3.2, 10 and 32 mg./kg., i.p., respectively) and these mice were separated one to an activity cage. After an initial 1/2 hour exposure period (for acclimation purposes), each animal in the cage was treated with a sample of the drug intraperitoneally and immediately thereafter returned to said cage, with activity counts every 1/2 hour being recorded from that point on.

Assay [2] is described as follows: psychotropic (antidepressant, psychomotor stimulant) activity and side effects of the compounds, general statements. The assay is classed as in vivo. The note with it: general statement; compounds and their hydrochloride acid addition salts.
The test system of assay [3] is non-discriminated (Sidman) avoidance behavior. The experiment in a line: non-discriminated (Sidman) avoidance behavior in rats, response rates. The assay is classed as in vivo, rat. The note with it: 5 and 10 mg./kg. i.p.
Text: as §1
Eight mature male rats were trained in Lehigh Valley automatic multiple-operant conditioning chambers to avoid a 2.0 mA electric shock that would last for 0.75 second, or terminate sooner if the rat lever became activated during the shock. In these tests, lever presses postponed the onset of shock for an initial period of 30 seconds, while only 10 seconds elapsed between shocks if no intervening response was elicited. The rats were run for a 40-minute control period before receiving the drug and then for approximately 2.5 hours after each treatment.

Structures can show the parent of a compound that is named as a salt.

Turning to `CNCCCC1c2ccccc2C=Cc2ccccc21` [protriptlyine, reference compound], the hyperactive response result in assay [1] is listed as “failed to elicit any hyperactive response whatsoever”.

With `CN[C@@H]1CC[C@@H](c2ccccc2)c2ccccc21` (relative stereo) [Trans-isomer of Example IV, trans-dl-N-methyl-4-phenyl-1,2,3,4-tetrahydro-1-naphthylamine hydrochloride], in assay [1] (after 32 mg./kg.), the “time course (duration) of effect” value is reported as “especially long-lived”. Turning to `CC(C)N[C@@H]1CC[C@@H](c2ccccc2)c2ccccc21` (relative stereo) [trans-dl-N-isopropyl-4-phenyl-1,2,3,4-tetrahydro-1-naphthylamine], in assay [2], the antidepressant activity result is “markedly high degree of antidepressant activity”.

In the case of `CNCCCN1c2ccccc2CCc2ccccc21` [desmethylimipramine, reference compound], the hyperactive response result in assay [1] is reported as “failed to elicit any hyperactive response whatsoever”. As for `N[C@@H]1CC[C@@H](c2ccccc2)c2ccccc21` (relative stereo) [trans-dl-4-phenyl-1,2,3,4-tetrahydro-1-naphthylamine], in assay [2], the antidepressant activity result is “markedly high degree of antidepressant activity”. On the same count and under the same terms, in the case of `CN[C@@H]1CC[C@@H](c2ccccc2)c2ccccc21` [trans-d-N-methyl-4-phenyl-1,2,3,4-tetrahydro-1-naphthylamine] it was “markedly high degree of antidepressant activity”. Still for that read-out and setting: in the case of `CCN[C@@H]1CC[C@@H](c2ccccc2)c2ccccc21` (relative stereo) [trans-dl-N-ethyl-4-phenyl-1,2,3,4-tetrahydro-1-naphthylamine] it was “markedly high degree of antidepressant activity”.

Consider `CN(C)[C@@H]1CC[C@@H](c2ccccc2)c2ccccc21` (relative stereo) [trans-dl-N,N-dimethyl-4-phenyl-1,2,3,4-tetrahydro-1-naphthylamine], for which, in assay [2], the antidepressant activity entry was “markedly high degree of antidepressant activity”.

On to `CN[C@H]1CC[C@H](c2ccccc2)c2ccccc21` [Trans-l-isomer of Example III, trans-l-N-methyl-4-phenyl-1,2,3,4-tetrahydro-1-naphthylamine hydrochloride], for which the stimulant effect result in assay [1] (tested at 10 and 32 mg./kg. i.p.) is listed as “little evidence of a stimulant effect”.

As for `CN[C@@H]1CC[C@@H](c2ccccc2)c2ccccc21` (relative stereo) [trans-dl-N-methyl-4-phenyl-1,2,3,4-tetrahydro-1-naphthylamine], the antidepressant activity entry in assay [2] is reported as “markedly high degree of antidepressant activity”.

With `c1ccc([C@@H]2CC[C@@H](NC3CC3)c3ccccc32)cc1` (relative stereo) [trans-dl-N-cyclopropyl-4-phenyl-1,2,3,4-tetrahydro-1-naphthylamine], the antidepressant activity entry in assay [2] is listed as “markedly high degree of antidepressant activity”.

As to `CN[C@@H]1CC[C@@H](c2ccccc2)c2ccccc21` [Trans-d-isomer of Example III, trans-d-N-Methyl-4-phenyl-1,2,3,4-tetrahydro-1-naphthylamine as the hydrochloride], in assay [3], the “duration of drug effect after administration” value was “approximately one and a half”; the “start of drug effect” value is at most 20 min. In assay [3] (in four out of eight rats), the “effect on response rates” value was “moderate to marked increase in response rates” and the “increase of response rates over normal pre-drug control levels” value is 2-6 times. Besides, the “increase of response rates over pre-drug control levels” value in assay [3] (in two other rats) was “about 1.5 times”. Moreover, the “effect on activity counts compared with d-amphetamine sulfate and methylphenidate” value in assay [1] (10 mg./kg. i.p. versus d-amphetamine sulfate 3.2 mg./kg. and methylphenidate 10 mg./kg.) was “more pronounced than that of d-amphetamine sulfate at 3.2 mg./kg. and surpassing even that of methylphenidate at 10 mg./kg”. In addition, the “effect on activity counts” value in assay [1] (10 mg./kg. i.p., 30-60 minutes after treatment) is “markedly elevated the activity counts”. In assay [1] (10 mg./kg. versus d-amphetamine sulfate 3.2 mg./kg.), the “time course (duration) of effect” value is recorded as “even more prolonged in its effect than did that of d-amphetamine sulfate”.

Values taken from patent publication US4045488A, “Aminophenyltetralin compounds” (Pfizer Inc., priority 1976, dated 1977).
